Patent US11034650B2, “Compounds useful for treating a Mannheimia haemolytica or Histophilus somni infection” (Intervet Inc., priority 2016, dated 2021)
Converted amounts (≈) assume the structure as drawn.

Experiments:
Assay type in all cases: cell-based
[1] = system: Mannheimia haemolytica MH 6357 (M7/2, reference strain, cattle infection strain); test: MIC, broth-microdilution (CLSI VET01-A4), strain MH 6357; settings: Mannheimia haemolytica strain MH 6357, broth-microdilution; unit assumed
Method in brief: (§1)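 Compounds were serially diluted twofold in microdilution trays. Growth was judged by eye, and the MIC was the lowest concentration showing no turbidity. Results were interpreted per CLSI VET01-S3.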

[2] = system: Mannheimia haemolytica MH 6374 (ATCC 33396, reference strain); test: MIC, broth-microdilution (CLSI VET01-A4), strain MH 6374; settings: Mannheimia haemolytica strain MH 6374, broth-microdilution; unit assumed
Method in brief: as §1

[3] = system: Mannheimia haemolytica MH 10720 (154, BRD field isolate); test: MIC, broth-microdilution (CLSI VET01-A4), strain MH 10720; settings: Mannheimia haemolytica strain MH 10720, broth-microdilution; unit assumed
Method in brief: as §1

[4] = system: Mannheimia haemolytica MH 12587 (1071, BRD field isolate, macrolide-resistance: erm+, E+); test: MIC, broth-microdilution (CLSI VET01-A4), strain MH 12587; settings: Mannheimia haemolytica strain MH 12587, broth-microdilution; unit assumed
Method in brief: as §1

[5] = system: Mannheimia haemolytica MH 13065 (XB0446-6003.9, BRD field isolate); test: MIC, broth-microdilution (CLSI VET01-A4), strain MH 13065; settings: Mannheimia haemolytica strain MH 13065, broth-microdilution; unit assumed
Method in brief: as §1

[6] = system: Mannheimia haemolytica MH 13093 (XB0472-6014.1, BRD field isolate); test: MIC, broth-microdilution (CLSI VET01-A4), strain MH 13093; settings: Mannheimia haemolytica strain MH 13093, broth-microdilution; unit assumed
Method in brief: as §1

[7] = system: Pasteurella multocida PM 6267 (P 2225 (L386), reference strain, mouse infection strain); test: MIC, broth-microdilution (CLSI VET01-A4), strain PM 6267; settings: Pasteurella multocida strain PM 6267, broth-microdilution; unit assumed
Method in brief: as §1

[8] = system: Pasteurella multocida PM 6391 (ATCC 43137, reference strain); test: MIC, broth-microdilution (CLSI VET01-A4), strain PM 6391; settings: Pasteurella multocida strain PM 6391, broth-microdilution; unit assumed
Method in brief: as §1

[9] = system: Pasteurella multocida PM 10775 (080130003051, BRD field isolate); test: MIC, broth-microdilution (CLSI VET01-A4), strain PM 10775; settings: Pasteurella multocida strain PM 10775, broth-microdilution; unit assumed
Method in brief: as §1

[10] = system: Pasteurella multocida PM 12080 (IV102277-0093, BRD field isolate); test: MIC, broth-microdilution (CLSI VET01-A4), strain PM 12080; settings: Pasteurella multocida strain PM 12080, broth-microdilution; unit assumed
Method in brief: as §1

Row | SMILES | MIC PM 6267 [7] [µg/mL] | MIC PM 6391 [8] [µg/mL] | MIC PM 10775 [9] [µg/mL] | MIC PM 12080 [10] [µg/mL] | MIC MH 6357 [1] [µg/mL] | MIC MH 6374 [2] [µg/mL] | MIC MH 10720 [3] [µg/mL] | MIC MH 12587 [4] [µg/mL] | MIC MH 13065 [5] [µg/mL] | MIC MH 13093 [6] [µg/mL]
1 | CSC(C)(C)[C@H](NC(=O)c1ccc(C#Cc2ccc(CNCc3ccnc(Cl)c3)cc2)cc1)C(=O)NO [Compound 248] | 0.4 (≈ 0.745 µM) | 0.8 (≈ 1.49 µM) | 0.2 (≈ 0.372 µM) | 0.8 (≈ 1.49 µM) | 1.6 (≈ 2.98 µM) | 1.6 (≈ 2.98 µM) | 0.4 (≈ 0.745 µM) | 1.6 (≈ 2.98 µM) | 1.6 (≈ 2.98 µM) | 1.6 (≈ 2.98 µM)
2 | CC(C)([C@H](NC(=O)c1ccc(C#Cc2ccc(CNCc3ccco3)cc2)cc1)C(=O)NO)S(C)(=O)=O [C.270] | ≤ 0.1 | ≤ 0.1 | ≤ 0.1 | ≤ 0.1 | 0.8 (≈ 1.53 µM) | 0.2 (≈ 0.382 µM) | ≤ 0.1 | 0.8 (≈ 1.53 µM) | 0.2 (≈ 0.382 µM) | 0.4 (≈ 0.764 µM)
3 | CSC(C)(C)[C@H](NC(=O)c1ccc(C#Cc2ccc(CNCc3ccccc3)nc2)cc1)C(=O)NO [Compound 339] | 0.8 (≈ 1.59 µM) | 0.8 (≈ 1.59 µM) | ≤ 0.1 | 0.2 (≈ 0.398 µM) | 0.8 (≈ 1.59 µM) | 1.6 (≈ 3.18 µM) | ≤ 0.1 | 1.6 (≈ 3.18 µM) | 0.8 (≈ 1.59 µM) | 1.6 (≈ 3.18 µM)
4 | C=CCNCc1ccc(C#Cc2ccc(C(=O)N[C@H](C(=O)NO)C(C)(C)S(C)(=O)=O)cc2)cn1 [Compound 370] | 0.2 (≈ 0.413 µM) | 0.4 (≈ 0.825 µM) | ≤ 0.1 | 0.2 (≈ 0.413 µM) | 0.8 (≈ 1.65 µM) | 1.6 (≈ 3.3 µM) | 0.8 (≈ 1.65 µM) | 3.1 (≈ 6.4 µM) | 1.6 (≈ 3.3 µM) | 3.1 (≈ 6.4 µM)
5 | COc1ccc(CNCc2ccc(C#Cc3ccc(C(=O)N[C@H](C(=O)NO)C(C)(C)SC)cc3)cn2)cc1 [Compound 340] | 1.6 (≈ 3 µM) | 1.6 (≈ 3 µM) | 0.2 (≈ 0.375 µM) | 0.8 (≈ 1.5 µM) | 0.8 (≈ 1.5 µM) | 1.6 (≈ 3 µM) | 0.4 (≈ 0.751 µM) | 3.1 (≈ 5.82 µM) | 1.6 (≈ 3 µM) | 1.6 (≈ 3 µM)
6 | CSC(C)(C)[C@H](NC(=O)c1ccc(C#Cc2ccc(CNCC(F)(F)F)nc2)cc1)C(=O)NO [Compound 345] | 0.8 (≈ 1.62 µM) | 0.8 (≈ 1.62 µM) | ≤ 0.1 | 0.4 (≈ 0.809 µM) | 0.8 (≈ 1.62 µM) | 1.6 (≈ 3.24 µM) | ≤ 0.1 | 1.6 (≈ 3.24 µM) | 0.8 (≈ 1.62 µM) | 1.6 (≈ 3.24 µM)
7 | CC(C)([C@H](NC(=O)c1ccc(C#Cc2ccc(CNCc3nccs3)cc2)cc1)C(=O)NO)S(C)(=O)=O [C.274] | ≤ 0.1 | ≤ 0.1 | ≤ 0.1 | ≤ 0.1 | 0.2 (≈ 0.37 µM) | 0.2 (≈ 0.37 µM) | ≤ 0.1 | 0.4 (≈ 0.74 µM) | 0.2 (≈ 0.37 µM) | 0.2 (≈ 0.37 µM)

Now from value to compound, other results behind:

Row | MIC PM 6267 [7] [µg/mL] | MIC PM 6391 [8] [µg/mL] | MIC PM 10775 [9] [µg/mL] | MIC PM 12080 [10] [µg/mL] | SMILES | MIC MH 6357 [1] [µg/mL] | MIC MH 6374 [2] [µg/mL] | MIC MH 10720 [3] [µg/mL] | MIC MH 12587 [4] [µg/mL] | MIC MH 13065 [5] [µg/mL] | MIC MH 13093 [6] [µg/mL]
8 | 1.6 (≈ 3.44 µM) | ≤ 0.1 | 0.2 (≈ 0.431 µM) | 0.2 (≈ 0.431 µM) | CON=C(C)[C@H](NC(=O)c1ccc(C#Cc2ccc(CN3CCOCC3)cc2)cc1)C(=O)NO [Compound 381] | 1.6 (≈ 3.44 µM) | 3.1 (≈ 6.67 µM) | 0.4 (≈ 0.861 µM) | 1.6 (≈ 3.44 µM) | 1.6 (≈ 3.44 µM) | 1.6 (≈ 3.44 µM)
9 | ≤ 0.1 | 0.4 (≈ 0.918 µM) | ≤ 0.1 | 0.4 (≈ 0.918 µM) | CC(C)(O)[C@H](NC(=O)c1ccc(C#Cc2ccc(CNC3CCC3)cc2)cc1)C(=O)NO [Compound 226] | 3.1 (≈ 7.12 µM) | 3.1 (≈ 7.12 µM) | 0.8 (≈ 1.84 µM) | 12.5 (≈ 28.7 µM) | 3.1 (≈ 7.12 µM) | 6.3 (≈ 14.5 µM)
10 | ≤ 0.1 | ≤ 0.1 | ≤ 0.1 | ≤ 0.1 | CSC(C)(C)[C@H](NC(=O)c1ccc(C#Cc2ccc(CN3CCOCC3)cc2)cc1)C(=O)NO [Compound 238] | 1.6 (≈ 3.32 µM) | 3.1 (≈ 6.44 µM) | 0.8 (≈ 1.66 µM) | 3.1 (≈ 6.44 µM) | 1.6 (≈ 3.32 µM) | 1.6 (≈ 3.32 µM)
11 | ≤ 0.1 | ≤ 0.1 | ≤ 0.1 | ≤ 0.1 | O=C(N[C@@H](CO)C(=O)NO)c1ccc(C#Cc2ccc(CN3CCCOCC3)cc2)cc1 [Compound 215] | 3.1 (≈ 7.09 µM) | 3.1 (≈ 7.09 µM) | 0.8 (≈ 1.83 µM) | 6.3 (≈ 14.4 µM) | 3.1 (≈ 7.09 µM) | 6.3 (≈ 14.4 µM)
